# Measurements taken from US10383938B2 (priority 2010, dated 2019).
# How the values were obtained:
# TNF mRNA = experiment: Local in vivo activity: TNF mRNA gene expression in draining lymph nodes by quantitative PCR (Example 11); parameters: species or system Balb/c male mice; conditions: s.c. 1.0 mg/kg; for TNF mRNA Gene Expression in Lymph Nodes [fold increase versus control (s.d.)]: draining axial and brachial lymph nodes
# Description: (§1) The final dose for either compound was 1.0 mg/kg. At each time point, the mice were bled, sacrificed, and the draining axial and brachial lymph nodes were removed and placed in RNA preservation fluid (RNA later reagent obtained from Ambion Corporation, Austin, Tex.). Serum samples were analyzed for TNF protein concentration (pg/ml) by ELISA as a measure of systemic presence of this cytokine. The draining lymph nodes were processed for measurement of TNF mRNA gene expression by quantitative PCR (7900HT Thermocycler obtained from Applied Biosystems, Carlsbad, Calif.). The data reported (Table 10) is the mean+/−standard deviation (s.d.) for each group. The “not detected” level for serum TNF concentration was less than 10 pg/ml.
# [1] = system: interferon-gamma (IFNgamma); parameters: species or system mice; conditions: mouse, in vivo
# [2] = system: human peripheral mononuclear cells (PBMC); experiment: TNF production in human PBMC (Example 7); assay type: cell-based; conditions: for TNF: human PBMC, overnight at 37° C., ELISA
# Description: The human peripheral blood mononuclear cells were prepared from human volunteers and placed in culture in 96 well microtiter plates. […] The cells were then incubated overnight at 37° C. The medium was removed and TNF concentration (ng/mL) was measured by ELISA assay (Table 6).
# TNF protein = experiment: Local in vivo activity: serum TNF protein by ELISA (Example 11); parameters: species or system Balb/c male mice; conditions: s.c. 1.0 mg/kg, mean (s.d.) of 4 mice, not detected = less than 10 pg/ml
# Description: as §1
# [3] = system: systemic tumor necrosis factor (TNF); experiment: Systemic TNF induction in vivo after subcutaneous injection (Example 4); conditions: mice
# Description: The resiquimod preparation was made as an aqueous suspension in PBS.
# At one hour and at three hours post dose, the mice were bled and systemic TNF was measured in the serum (pg/mL) by ELISA assay. The results are presented as the geometric means obtained for each group of five animals. […] This can be important in providing localized immune system enhancement without systemic TNF side effects.
smiles,measurement,setting,value
"CCCCCCCCCCCCCCCCCC(=O)NCCCCOn1c(CCCC)nc2c(N)nc3ccccc3c21 [N-(4-{[4-amino-2-butyl-1H-imidazo[4,5-c]quinolin-1-yl]oxy}butyl)octadecanamide]","cytokine induction effects, local versus systemic (in words)",TNF mRNA; TNF mRNA induced in draining lymph nodes without TNF protein in serum,primarily local
same,TNF mRNA Gene Expression in Lymph Nodes [fold increase versus control (s.d.)],TNF mRNA; 1 hour post dose,0.65 (0.04) fold increase versus control
same,TNF mRNA Gene Expression in Lymph Nodes [fold increase versus control (s.d.)],TNF mRNA; 3 hours post dose,1.62 (1.23) fold increase versus control
same,TNF mRNA Gene Expression in Lymph Nodes [fold increase versus control (s.d.)],TNF mRNA; 6 hours post dose,7.23 (2.07) fold increase versus control
same,TNF mRNA Gene Expression in Lymph Nodes [fold increase versus control (s.d.)],TNF mRNA; 18 hours post dose,1.55 (0.28) fold increase versus control
same,"In Vitro Challenge of Isolated Spleenocytes, IFNgamma, Control PBS Challenge",[1],4.82 pg/mL
same,"In Vitro Challenge of Isolated Spleenocytes, IFNgamma, HA Antigen Challenge",[1],293.51 pg/mL
same,TNF,[2]; 0.014 μM,0.13 ng/mL
same,TNF,[2]; 0.043 μM,0.17 ng/mL
same,TNF,[2]; 0.13 μM,0.35 ng/mL
same,TNF,[2]; 0.37 μM,2.51 ng/mL
same,TNF,[2]; 1.1 μM,7.07 ng/mL
same,TNF,[2]; 3.3 μM,28.73 ng/mL
same,TNF,[2]; 10 μM,31.46 ng/mL
same,TNF,[2]; 30 μM,29.47 ng/mL
same,induction of TNF-α production (in words),"[2]; summary statement, ""as described above""",induce the production of TNF-α
same,Serum TNF [pg/ml (s.d.)],TNF protein; 1 hour post dose,not detected
same,Serum TNF [pg/ml (s.d.)],TNF protein; 3 hours post dose,not detected
same,Serum TNF [pg/ml (s.d.)],TNF protein; 6 hours post dose,not detected
same,Serum TNF [pg/ml (s.d.)],TNF protein; 18 hours post dose,not detected
same,systemic TNF response (in words),"[3]; subcutaneous injection, 1 mg/Kg, summary of Table 3",does not induce a systemic TNF response
"CCOCc1nc2c(N)nc3ccccc3c2n1CC(C)(C)O [Resiquimod, resiquimod, reference compound]",TNF mRNA Gene Expression in Lymph Nodes [fold increase versus control (s.d.)],TNF mRNA; 1 hour post dose,14.19 (3.83) fold increase versus control
same,TNF mRNA Gene Expression in Lymph Nodes [fold increase versus control (s.d.)],TNF mRNA; 3 hours post dose,4.82 (0.70) fold increase versus control
same,TNF mRNA Gene Expression in Lymph Nodes [fold increase versus control (s.d.)],TNF mRNA; 6 hours post dose,1.39 (0.27) fold increase versus control
same,TNF mRNA Gene Expression in Lymph Nodes [fold increase versus control (s.d.)],TNF mRNA; 18 hours post dose,0.90 (0.23) fold increase versus control
same,"In Vitro Challenge of Isolated Spleenocytes, IFNgamma, Control PBS Challenge",[1],3.84 pg/mL
same,"In Vitro Challenge of Isolated Spleenocytes, IFNgamma, HA Antigen Challenge",[1],91.88 pg/mL
same,Serum TNF [pg/ml (s.d.)],TNF protein; 1 hour post dose,4082 (873) pg/ml
same,Serum TNF [pg/ml (s.d.)],TNF protein; 3 hours post dose,107 (35) pg/ml
same,Serum TNF [pg/ml (s.d.)],TNF protein; 6 hours post dose,18 (4) pg/ml
same,"TNF concentration at Times Following Treatment, 1 hour","[3]; s.c. 1 mg/Kg, serum at 1 hour post dose, geometric mean of 5 animals",1140.41 pg/mL
same,"TNF concentration at Times Following Treatment, 3 hour","[3]; s.c. 1 mg/Kg, serum at 3 hours post dose, geometric mean of 5 animals",<5 pg/mL
